Test results taken from patent publication US10233161B2, “Pharmaceutical compositions and salts of a 1,2,4-oxadiazole benzoic acid” (PTC Therapeutics, Inc., priority 2014, dated 2019).

Test: Comparative equilibrium solubility study of micronized and non-micronized Compound 1
Format: physicochemical
Conditions: for Concentration of Compound 1 in 0.1N HCl + 0.5% SLS: pH 1; for Concentration of Compound 1 in PBS: pH 7.4
Protocol: Objective: The purpose of this study was to evaluate the solubility of micronized and non-micronized Compound 1. The solubility study was conducted in two representative media in pH 1 (0.1 N HCl with 0.5% sodium lauryl sulfate) and in pH 7.4 (0.1M phosphate buffered saline). The experiment further compared the initial rate of dissolution and equilibrium solubilities of micronized and non-micronized Compound 1 over a period of time.
Solubility measurement procedure comprised the steps of: 1) weighing and mixing approximately 100 mg of micronized Compound 1 and 100 mL of 0.1N HCl with 0.5% SLS into amber jar 1; 2) weighing and mixing approximately 100 mg of micronized Compound 1 and 100 mL of PBS into amber jar 2; 3) weighing and mixing approximately 100 mg of non-micronized Compound 1 and 100 mL of 0.1N HCl with 0.5% SLS into amber jar 3; 4) weighing and mixing approximately 100 mg of non-micronized Compound 1 and 100 mL of PBS into amber jar 4; 5) mixing all samples in their respective amber jars using a multi purpose rotator for 2 hours; 4) sampling at 5 minutes, 10 minutes, 30 minutes, 60 minutes, 90 minutes, 120 minutes; 5) filtering the samples and 6) analyzing the filtrates using HPLC. For each time point, 10 mL of sample was drawn using a 10 mL syringe with a needle attached filter and using a syringe-top 0.45 μm PTFE syringe filter. The first 9 mL of the samples collected were put back into the original amber jar and then remaining 1 mL was transferred to HPLC vial for analysis.

Row | SMILES | Concentration of Compound 1 in 0.1N HCl + 0.5% SLS (5 minutes) | Concentration of Compound 1 in 0.1N HCl + 0.5% SLS (10 minutes) | Concentration of Compound 1 in 0.1N HCl + 0.5% SLS (30 minutes) | Concentration of Compound 1 in 0.1N HCl + 0.5% SLS (60 minutes) | Concentration of Compound 1 in 0.1N HCl + 0.5% SLS (90 minutes) | Concentration of Compound 1 in 0.1N HCl + 0.5% SLS (120 minutes) | Concentration of Compound 1 in PBS (5 minutes) | Concentration of Compound 1 in PBS (10 minutes) | Concentration of Compound 1 in PBS (30 minutes) | Concentration of Compound 1 in PBS (60 minutes) | Concentration of Compound 1 in PBS (90 minutes) | Concentration of Compound 1 in PBS (120 minutes)
1 | O=C(O)c1cccc(-c2noc(-c3ccccc3F)n2)c1 [Micronized Compound 1] | 6.85 µg/mL | 6.81 µg/mL | 6.83 µg/mL | 7.04 µg/mL | 6.88 µg/mL | 7.18 µg/mL | 189.13 µg/mL | 191.45 µg/mL | 197.59 µg/mL | 199.95 µg/mL | 200.29 µg/mL | 203.08 µg/mL
2 | O=C(O)c1cccc(-c2noc(-c3ccccc3F)n2)c1 [Non-Micronized Compound 1] | 6.24 µg/mL | 6.38 µg/mL | 6.87 µg/mL | 6.99 µg/mL | 6.97 µg/mL | 7.04 µg/mL | 141.89 µg/mL | 152.59 µg/mL | 176.92 µg/mL | 185.18 µg/mL | 194.06 µg/mL | 196.54 µg/mL
